# Test results published in US20240307362A1 (priority 2019, published 2024).
# Read-outs that look alike come from different tables or passages of the source.
# Key:
# [1] = target: human Bub1 (Homo sapiens (Human), UniProt O43683); test: Bub1 high ATP kinase assay (TR-FRET); assay type: biochemical
# Source text: Bub1-inhibitory activity of compounds of the present invention at a high ATP concentration was quantified employing the Bub1 TR-FRET high ATP kinase assay as described in the following paragraphs.
# N-terminally His6-tagged recombinant catalytic domain of human Bub1 (amino acids 704-1085), expressed in insect cells (Hi5) and purified by Ni-NTA affinity chromatography and subsequent size exclusion chromatography, was used as enzyme.
# [2] = system: Ba/F3-EGFR-WT; test: Ba/F3 cell survival assay, WT EGFR; assay type: cell-based
# Procedure: (§1) 293T cells from ATCC were transfected with pBABEpuro expression constructs for WT EGFR or EGFR-insSVD and pCL-Eco packaging vector using Fugene-6 transfection reagent from Promega. Plates were incubated at 37° C. for 48 h. Retrovirus was harvested by filtering the media supernatant through a 0.45 μm filter.
# (§2) Ba/F3 cells purchased from DSMZ were grown in RPMI+10% FBS+10 ng/mL IL-3 and infected with filtered retroviral supernatant at a 1:2 dilution. Polybrene was added to a concentration of 8 μg/mL, plates were spun for 90 min, and incubated overnight at 37° C. 2 μg/mL puromycin was added to the infected cells 24 h after infection and cells were continually grown in the presence of puromycin and 10 ng/mL IL-3. Following stably expressing Ba/F3 cell lines were generated: Ba/F3-EGFR-WT, Ba/F3-EGFR-insSVD, (Ba/F3-vector-control).
# The cells ectopically expressing WT EGFR or EGFR-insSVD were plated with 10 ng/mL Millipore Culture grade EGF. The cells ectopically expressing pBABEpuro empty vector were plated with 10 ng/mL IL-3.
# 100 nL of compound was added to each well using a 100 nL pin head, and plates were incubated at 37° C. for 48 h.
# (§3) Cell viability was measured by adding 20 μL of Cell Titer-Glo Luminescent Cell Viability Reagent diluted 1:3 in PBS. Plates were sealed with Perkin Elmer Top-Seal, inverted several times to mix, and immediately centrifuged at 1000 rpm for 2 min.
# [3] = system: Ba/F3-EGFR-insSVD; test: Ba/F3 cell survival assay, EGFR-insSVD; assay type: cell-based
# Procedure: as §1, §2
# For cell survival assays, Ba/F3 cells were grown to a density of 1-2 million cells per mL, spun down and resuspended in media without IL-3, and replated at a concentration 200,000-500,000 cells per mL. The cells ectopically expressing WT EGFR or EGFR-insSVD were plated with 10 ng/mL Millipore Culture grade EGF. The cells ectopically expressing pBABEpuro empty vector were plated with 10 ng/mL IL-3.
# 2 days later, cells were plated in 50 μL in a 384 well plate at a concentration of 4000 cells per well for cells assayed in the absence of IL-3 and 2000 cells per well for cells assayed in the presence of IL-3. 100 nL of compound was added to each well using a 100 nL pin head, and plates were incubated at 37° C. for 48 h.
# as §3, with “min. Plates were incubated in low light conditions for 8-10 min and luminescence was measured.” for “min.”
# [4] = Bub1 high ATP (2 mM) IC50, 2 mM ATP
# [5] = Mus musculus, BaF3, 48 h, read-out: BA/F3 (wild type) IC50, cell viability, Cell Titer-Glo, 48 h, with 10 ng/mL EGF, without IL-3
# [6] = Mus musculus, BaF3, 48 h, read-out: BA/F3 (insSVD) IC50, cell viability, Cell Titer-Glo, 48 h, with 10 ng/mL EGF, without IL-3
# [7] = read-out: BA/F3 (wild type) IC50, cell viability, Cell Titer-Glo, 48 h, with 10 ng/mL EGF, without IL-3
# [8] = read-out: BA/F3 (insSVD) IC50, cell viability, Cell Titer-Glo, 48 h, with 10 ng/mL EGF, without IL-3
# [9] = read-out: Bub1 high ATP (2 mM) IC50, 2 mM ATP
# Chain of human Bub1 (O43683 704-1085): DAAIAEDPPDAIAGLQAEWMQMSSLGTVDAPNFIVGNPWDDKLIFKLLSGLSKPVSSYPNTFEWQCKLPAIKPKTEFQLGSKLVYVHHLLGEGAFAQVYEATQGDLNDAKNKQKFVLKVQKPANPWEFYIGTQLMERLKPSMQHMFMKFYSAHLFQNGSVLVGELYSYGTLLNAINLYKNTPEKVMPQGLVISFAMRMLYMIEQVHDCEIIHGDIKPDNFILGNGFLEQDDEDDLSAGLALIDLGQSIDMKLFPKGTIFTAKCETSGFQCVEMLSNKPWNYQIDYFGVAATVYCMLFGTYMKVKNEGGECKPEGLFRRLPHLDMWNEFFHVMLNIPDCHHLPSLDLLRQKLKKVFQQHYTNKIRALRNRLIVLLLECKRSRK
smiles,measurement,setting,value
"COc1c(F)cccc1Nc1c(-c2ccncc2OCCC2CCO2)[nH]c2c1C(=O)NCC2 (single isomer, unassigned) [Example 44, 3-(3-fluoro-2-methoxyanilino)-2-{3-[2-(oxetan-2-yl)ethoxy]pyridin-4-yl}-1,5,6,7-tetrahydro-4H-pyrrolo[3,2-c]pyridin-4-one]",IC50,[1]; [4],> 20000 nM
same,IC50,[2]; [5],903 nM
same,IC50,[3]; [6],34.1 nM
"COc1c(F)cccc1Nc1c(-c2ccncc2OCCC2CCO2)[nH]c2c1C(=O)NCC2 (single isomer, unassigned) [Example 45, 3-(3-fluoro-2-methoxyanilino)-2-{3-[2-(oxetan-2-yl)ethoxy]pyridin-4-yl}-1,5,6,7-tetrahydro-4H-pyrrolo[3,2-c]pyridin-4-one]",IC50,[1]; [4],12700 nM
same,IC50,[2]; [7],746 nM
same,IC50,[3]; [8],46.4 nM
"O=C1NCCc2[nH]c(-c3ccncc3OCCC3CCO3)c(Nc3cccc(Cl)c3Cl)c21 (single isomer, unassigned) [Example 63, 3-(2,3-dichloroanilino)-2-(3-{2-[oxetan-2-yl]ethoxy}pyridin-4-yl)-1,5,6,7-tetrahydro-4H-pyrrolo[3,2-c]pyridin-4-one]",IC50,[1]; [9],5510 nM
same,IC50,[2]; [5],567 nM
same,IC50,[3]; [6],31.4 nM
"O=C1NCCc2[nH]c(-c3ccncc3OCCC3CCO3)c(Nc3cccc(Cl)c3Cl)c21 (single isomer, unassigned) [Example 64, 3-(2,3-dichloroanilino)-2-(3-{2-[oxetan-2-yl]ethoxy}pyridin-4-yl)-1,5,6,7-tetrahydro-4H-pyrrolo[3,2-c]pyridin-4-one]",IC50,[1]; [4],5380 nM
same,IC50,[2]; [7],726 nM
same,IC50,[3]; [8],23 nM
"COc1c(Cl)cc(F)cc1Nc1c(-c2ccncc2OCC2CCO2)[nH]c2c1C(=O)NCC2 (single isomer, unassigned) [Example 66, 3-(3-chloro-5-fluoro-2-methoxyanilino)-2-(3-{[oxetan-2-yl]methoxy}pyridin-4-yl)-1,5,6,7-tetrahydro-4H-pyrrolo[3,2-c]pyridin-4-one]",IC50,[1]; [4],> 20000 nM
same,IC50,[2]; [7],1500 nM
same,IC50,[3]; [8],140 nM
"CC1(C)COC1COc1cnccc1-c1[nH]c2c(c1Nc1cccc(Cl)c1OC(F)F)C(=O)NCC2 (single isomer, unassigned) [Example 72, 3-[3-chloro-2-(difluoromethoxy)anilino]-2-(3-{[3,3-dimethyloxetan-2-yl]methoxy}pyridin-4-yl)-1,5,6,7-tetrahydro-4H-pyrrolo[3,2-c]pyridin-4-one]",IC50,[1]; [4],> 20000 nM
same,IC50,[2]; [7],2740 nM
same,IC50,[3]; [8],436 nM
"CC1(C)COC1COc1cnccc1-c1[nH]c2c(c1Nc1cccc(Cl)c1OC(F)F)C(=O)NCC2 (single isomer, unassigned) [Example 73, 3-[3-chloro-2-(difluoromethoxy)anilino]-2-(3-{[3,3-dimethyloxetan-2-yl]methoxy}pyridin-4-yl)-1,5,6,7-tetrahydro-4H-pyrrolo[3,2-c]pyridin-4-one]",IC50,[1]; [9],> 20000 nM
same,IC50,[2]; [5],1910 nM
same,IC50,[3]; [8],92.3 nM
"CC1(COc2cnccc2-c2[nH]c3c(c2Nc2cccc(Cl)c2OC(F)F)C(=O)NCC3)CCO1 (single isomer, unassigned) [Example 76, 3-[3-chloro-2-(difluoromethoxy)anilino]-2-(3-{[2-methyloxetan-2-yl]methoxy}pyridin-4-yl)-1,5,6,7-tetrahydro-4H-pyrrolo[3,2-c]pyridin-4-one]",IC50,[1]; [9],> 20000 nM
same,IC50,[2]; [7],1880 nM
same,IC50,[3]; [8],291 nM
"O=C1NCCc2[nH]c(-c3ccncc3OCC3CCO3)c(Nc3cccc(Cl)c3Cl)c21 (single isomer, unassigned; (+)) [Example 11, (+)-3-(2,3-dichloroanilino)-2-{3-[(oxetan-2-yl)methoxy]pyridin-4-yl}-1,5,6,7-tetrahydro-4H-pyrrolo[3,2-c]pyridin-4-one]",IC50,[1]; [9],> 20000 nM
same,IC50,[2]; [5],767 nM
same,IC50,[3]; [6],147 nM
"COc1c(Nc2c(-c3ccncc3OCC3CCO3)[nH]c3c2C(=O)NCC3)ccc(F)c1Cl (single isomer, unassigned; (+)) [Example 15, (+)-3-(3-chloro-4-fluoro-2-methoxyanilino)-2-{3-[(oxetan-2-yl)methoxy]pyridin-4-yl}-1,5,6,7-tetrahydro-4H-pyrrolo[3,2-c]pyridin-4-one]",IC50,[1]; [9],> 20000 nM
same,IC50,[2]; [7],2380 nM
same,IC50,[3]; [8],168 nM
"COc1c(F)cccc1Nc1c(-c2ccncc2OCC2(C)CCO2)[nH]c2c1C(=O)NCC2 (single isomer, unassigned; (+)) [Example 21, (+)-3-(3-fluoro-2-methoxyanilino)-2-{3-[(2-methyloxetan-2-yl)methoxy]pyridin-4-yl}-1,5,6,7-tetrahydro-4H-pyrrolo[3,2-c]pyridin-4-one]",IC50,[1]; [9],> 20000 nM
same,IC50,[2]; [7],571 nM
same,IC50,[3]; [8],40.4 nM
"COc1c(Cl)cccc1Nc1c(-c2ccncc2OCCC2CCO2)[nH]c2c1C(=O)NCC2 (single isomer, unassigned; (+)) [Example 25, (+)-3-(3-chloro-2-methoxyanilino)-2-{3-[2-(oxetan-2-yl)ethoxy]pyridin-4-yl}-1,5,6,7-tetrahydro-4H-pyrrolo[3,2-c]pyridin-4-one]",IC50,[1]; [9],1080 nM
same,IC50,[2]; [5],121 nM
same,IC50,[3]; [6],4.21 nM
"Cc1cccc(Nc2c(-c3ccncc3OCC3CCO3)[nH]c3c2C(=O)NCC3)c1Cl (single isomer, unassigned; (+)) [Example 38, (+)-3-(2-chloro-3-methylanilino)-2-{3-[(oxetan-2-yl)methoxy]pyridin-4-yl}-1,5,6,7-tetrahydro-4H-pyrrolo[3,2-c]pyridin-4-one]",IC50,[1]; [9],> 20000 nM
same,IC50,[2]; [7],628 nM
same,IC50,[3]; [8],48.8 nM
"COc1c(F)cccc1Nc1c(-c2ccncc2OCC2OCC2(C)C)[nH]c2c1C(=O)NCC2 (single isomer, unassigned; (+)) [Example 54, (+)-2-{3-[(3,3-dimethyloxetan-2-yl)methoxy]pyridin-4-yl}-3-(3-fluoro-2-methoxyanilino)-1,5,6,7-tetrahydro-4H-pyrrolo[3,2-c]pyridin-4-one]",IC50,[1]; [9],> 20000 nM
same,IC50,[2]; [7],498 nM
same,IC50,[3]; [8],30.9 nM
"Cc1cccc(Nc2c(-c3ccncc3OCC3OCC3(C)C)[nH]c3c2C(=O)NCC3)c1Cl (single isomer, unassigned; (+)) [Example 59, (+)-3-(2-chloro-3-methylanilino)-2-{3-[(3,3-dimethyloxetan-2-yl)methoxy]pyridin-4-yl}-1,5,6,7-tetrahydro-4H-pyrrolo[3,2-c]pyridin-4-one]",IC50,[1]; [9],> 20000 nM
same,IC50,[2]; [7],655 nM
same,IC50,[3]; [8],59.9 nM
"O=C1NCCc2[nH]c(-c3ccncc3OCC3CCO3)c(Nc3cccc(Cl)c3Cl)c21 (single isomer, unassigned; (-)) [Example 12, (−)-3-(2,3-dichloroanilino)-2-{3-[(oxetan-2-yl)methoxy]pyridin-4-yl}-1,5,6,7-tetrahydro-4H-pyrrolo[3,2-c]pyridin-4-one]",IC50,[1]; [9],11300 nM
same,IC50,[2]; [7],991 nM
same,IC50,[3]; [8],192 nM
"COc1c(Nc2c(-c3ccncc3OCC3CCO3)[nH]c3c2C(=O)NCC3)ccc(F)c1Cl (single isomer, unassigned; (-)) [Example 14, (−)-3-(3-chloro-4-fluoro-2-methoxyanilino)-2-{3-[(oxetan-2-yl)methoxy]pyridin-4-yl}-1,5,6,7-tetrahydro-4H-pyrrolo[3,2-c]pyridin-4-one]",IC50,[1]; [9],16300 nM
same,IC50,[2]; [5],1660 nM
same,IC50,[3]; [8],438 nM
